Experimental data from patent US6486201B1, “Agarofuan derivatives, their preparation, pharmaceutical composition containing them and their use as medicine” (Institute of Materia Medica, Chinese Academy of Medical …, priority 1998, dated 2002).

Assays:
[1] = test system: Wistar rats; experiment: Elevated plus maze test on rats; assay type: in vivo, rat; conditions: for total time of staying on the opened arm (sec. in 5 min.): in 2% lecithin, n 12
Source text: The elevated plus-maze test has been used by Pellow, S. And File, SE. for anti-anxiety model in rats. It is one of the most widely used models for anxiolytics. The elevated plus maze has two cross arms, one is an opened arm (50*10 cm, length, width), another is a closed arm (50×10×40 cm, length, width, height) and the maze is 50 cm above the floor during experiment. The rat for experiment is put on the opening at the cross point (10×10) of the two arms, and may freely choose to enter either opened or closed arm.
Wistar rats of 160±20 g body weight were used, and divided randomly into 8 groups, 12 in each group. Handling adaptability training was carried out one week before the experiment. In the experiment, AF-5 in 2% lecithin of the doses listed in Table 1 was given to rats which were fasted for 12 hours before experiment. After administration, the rat was put on the center opening of the elevated plus headed to opened arm, and times of entering the opened arm, total time of staying on the opened arm, and times of shuttling inside the closed arm were recorded.

[2] = test system: Wistar rats; experiment: Social interaction test on rats; assay type: in vivo, rat; conditions: mean ± SD; for total time of interaction, 0-9 (minutes): high illuminance unfamiliar conditions (HU); for interaction time (sec. in 9 min): 2 mg/kg ip, HU
Description: The rats (Wistar, 160±20 g) for experiment were individually housed in chambers (55×55×40 cm), and handling adaptability and injection training were carried out twice a day 2 weeks before experiment. One day before experiment, the rats were weighed, labeled and grouped at random in pairs but still separated-until experiment. In experiment, 8 pairs of rats were given AF-5 in 2% lecithin (2% lecithin as control), and the total time of interaction was recorded including smelling, licking, leaning against, grabbing, chasing, biting, following, kicking, hitting etc. The experiment conditions were high illuminance with unfamiliar conditions (HU), low illuminance with unfamiliar conditions, high illuminance with familiar conditions and low illuminance with familiar conditions T-test was used to determine the significance between the test group and control group (Table 3, 4).

[3] = test system: Kunming mice; experiment: Forced swimming test on mice (anti-depression activity); assay type: in vivo, mouse; conditions: for time of immobile phase (sec/4 min): mean ± SD
Description: The experiment used Kunming mice of China, male, 18-21 g of body weight. […]
The water in experiment vessel was 12 cm in depth, 12.5 cm in diameter and kept at 26° C. Each mouse was put in the water and forced to swim for 6 min in which total immobile time in the last 4 min was recorded, and the significance between experiment group and control group was tested by T value (Table 5).

[4] = test system: mice; experiment: Single dose toxicity in mice; assay type: in vivo
Source text: One week alive rate was 100%. The possible durable dosage was 2.4 g/kg by P.O. and two week alive rate was 100% at this dosage.

[5] = test system: Wistar rats; experiment: Elevated plus maze test on rats; assay type: in vivo, rat; conditions: 32 mg/kg ip, in 2% lecithin, mean ± SD, n 4
[6] = 2 mg/kg ip, time 5 minutes, mean ± SE
[7] = 2 mg/kg ip, time 15 minutes, mean ± SE
[8] = 2 mg/kg ip, time 30 minutes, mean ± SE
[9] = 2 mg/kg ip, time 60 minutes, mean ± SE
[10] = 2 mg/kg ip, time 90 minutes, mean ± SE

SMILES: CCCCC1=CCC[C@@]2(C)CC[C@@H]3C[C@]12OC3(C)C [AF-5, (1R,6S,9R)6,10,10-Trimethyl-2-butyl-11-oxatricyclo[7.2.1.0^1,6]dodec-2-ene]
- Times of shuttling ([1]; 0.5 mg/kg ip, 5 min, closed arm, mean ± SD): 2.5
- total time of staying on the opened arm (sec. in 5 min.) ([1]; 0.5 mg/kg ip, 5 min, mean ± SD): 23 sec. in 5 min.
- Times of shuttling ([1]; 1 mg/kg ip, 5 min, closed arm, mean ± SD): 2.8
- total time of staying on the opened arm (sec. in 5 min.) ([1]; 1 mg/kg ip, 5 min, mean ± SD): 25 + sec. in 5 min.
- Times of shuttling ([1]; 2 mg/kg ip, 5 min, closed arm, mean ± SD): 2.8
- total time of staying on the opened arm (sec. in 5 min.) ([1]; 2 mg/kg ip, 5 min, mean ± SD): 36 sec. in 5 min.
- Time in opened arm [1, 6]: 4.4
- Times of shuttling [1, 6]: 3.0
- Time in opened arm [1, 7]: 6.1
- Times of shuttling [1, 7]: 4.1
- Time in opened arm [1, 8]: 7.9
- Times of shuttling [1, 8]: 6.6
- Time in opened arm [1, 9]: 20.8
- Times of shuttling [1, 9]: 5.6
- Time in opened arm [1, 10]: 1.27
- Times of shuttling [1, 10]: 3.7
- Times of shuttling ([1]; 4 mg/kg ip, 5 min, closed arm, mean ± SD): 2.3
- total time of staying on the opened arm (sec. in 5 min.) ([1]; 4 mg/kg ip, 5 min, mean ± SD): 30 sec. in 5 min.
- Times of shuttling ([1]; 8 mg/kg ip, 5 min, closed arm, mean ± SD): 1.3
- total time of staying on the opened arm (sec. in 5 min.) ([1]; 8 mg/kg ip, 5 min, mean ± SD): 14 sec. in 5 min.
- Times of shuttling ([1]; 16 mg/kg ip, 5 min, closed arm, mean ± SD): 4.2
- total time of staying on the opened arm (sec. in 5 min.) ([1]; 16 mg/kg ip, 5 min, mean ± SD): 9.8 sec. in 5 min.
- Times of shuttling ([1]; 32 mg/kg ip, 5 min, closed arm, mean ± SD): 3.0
- anti-anxiety activity in elevated plus maze test (in words) ([1]; rats, dose-effect): antianxiety activity with a wide dosage range
- total time of interaction, 0-9 (minutes) ([2]; 0.125 mg/kg): 1.93 min
- total time of interaction, 0-9 (minutes) ([2]; 0.25 mg/kg): 2.28 min
- total time of interaction, 0-9 (minutes) ([2]; 0.5 mg/kg): 3.65 min
- total time of interaction, 0-9 (minutes) ([2]; 1.0 mg/kg): 4.02 min
- interaction time (sec. in 9 min) ([2]; time 5 minutes): 98 sec. in 9 min
- interaction time (sec. in 9 min) ([2]; time 15 minutes): 143 sec. in 9 min
- interaction time (sec. in 9 min) ([2]; time 30 minutes): 103 sec. in 9 min
- interaction time (sec. in 9 min) ([2]; time 60 minutes): 166 sec. in 9 min
- interaction time (sec. in 9 min) ([2]; time 90 minutes): 112 sec. in 9 min
- total time of interaction, 0-9 (minutes) ([2]; 2.0 mg/kg): 3.25 min
- total time of interaction, 0-9 (minutes) ([2]; 4.0 mg/kg): 3.23 min
- time of immobile phase (sec/4 min) ([3]; P.O. three times a day (24, 5, 0.5 hours before experiment), 0.5 mg/kg): 90 ± 25 sec/4 min
- time of immobile phase (sec/4 min) ([3]; P.O. three times a day (24, 5, 0.5 hours before experiment), 1.5 mg/kg): 60 ± 30 sec/4 min
- time of immobile phase (sec/4 min) ([3]; P.O. three times a day (24, 5, 0.5 hours before experiment), 5.0 mg/kg): 83 ± 35 sec/4 min
- time of immobile phase (sec/4 min) ([3]; P.O. three times a day (24, 5, 0.5 hours before experiment), 15.0 mg/kg): 74 ± 41 sec/4 min
- time of immobile phase (sec/4 min) ([3]; P.O., s.i.d. × 21 days, 5.0 mg/kg): 84 ± 41 sec/4 min
- time of immobile phase (sec/4 min) ([3]; P.O., s.i.d. × 21 days, 7.5 mg/kg): 69 ± 45 sec/4 min
- time of immobile phase (sec/4 min) ([3]; P.O., s.i.d. × 21 days, 15.0 mg/kg): 92 ± 66 sec/4 min
- time of mobile phase vs. control (in words) ([3]; administration in 21 successive days): prolonged the mobile time significantly
- anti-depression activity in forced swimming test (in words) ([3]; mice): has anti-depression activity
- time of mobile phase vs. control (in words) ([3]; single dosing 1.5, 5, and 15 mg/kg): did not prolong the time of mobile phase
- time of immobile phase (sec/4 min) ([3]; single dosing, P.O., 0.5 hr, 1.5 mg/kg): 93 ± 39 sec/4 min
- time of immobile phase (sec/4 min) ([3]; single dosing, P.O., 0.5 hr, 5.0 mg/kg): 101 ± 52 sec/4 min
- time of immobile phase (sec/4 min) ([3]; single dosing, P.O., 0.5 hr, 15.0 mg/kg): 97 ± 43 sec/4 min
- time of mobile phase vs. control (in words) ([3]; three times a day, 1.5 mg/kg group): showed significance
- time of mobile phase vs. control (in words) ([3]; three times a day, 0.5 and 5 mg/kg groups): did not show significance though prolonged the mobile time
- observed reactions after single dose ([4]; intravenous injection 500 mg, mice): effect of calming, lying down, decreasing alarm reaction and without other abnormal reactions
- toxicity in single dose toxicity test (in words) ([4]; mice): low toxicity and high safety coefficient
- possible durable dosage ([4]; mouse, in vivo, po, 2 week): 2.4 g/kg
- total time of staying on the opened arm (sec. in 5 min.) [5]: 9.6 sec. in 5 min.
